Columns and labels:
Type in all cases: in vivo
[1] = test system: goosegrass (Eleusine indica); test: Test B pre-/postemergence plant response; conditions: Preemergence, 62 g ai/ha; scale 0 to 100, 0 no effect, 100 complete control
[2] = test system: barnyardgrass (Echinochloa crus-galli); test: Test B flooded paddy test; conditions: for Plant response rating, Barnyardgrass: Flood (flooded paddy test), 13 to 15 days
Outline: (§1)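 Seedlings reaching 2 leaves are flooded 3 cm deep; test material is delivered to that water, which stays at the same depth. Plants remain in a greenhouse 13–15 days and are then scored by eye versus controls from 0 to 100.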

[3] = test system: ducksalad (Heteranthera limosa); test: Test B flooded paddy test; conditions: for Plant response rating, Ducksalad: Flood (flooded paddy test), 13 to 15 days
Outline: as §1

[4] = test system: rice (Oryza sativa); test: Test B flooded paddy test; conditions: for Plant response rating, Rice: Flood (flooded paddy test), 13 to 15 days
Outline: as §1

[5] = test system: umbrella sedge (Cyperus difformis); test: Test B flooded paddy test; conditions: for Plant response rating, Sedge, Umbrella: Flood (flooded paddy test), 13 to 15 days
Outline: as §1

[6] = test system: bermudagrass (Cynodon dactylon); test: Test B pre-/postemergence plant response
Outline: (§2)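 Test compounds, formulated in a non-phytotoxic solvent mixture with surfactant, are applied to the soil surface (loam and sand blend) right after seeding, or sprayed over plants at the 1- to 4-leaf stage grown in peat moss/vermiculite medium. After 13 to 15 days under glasshouse conditions, each species is scored visually from 0 (no effect) to 100 (complete control) against controls.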

[7] = test system: morningglory (Ipomoea coccinea); test: Test B pre-/postemergence plant response
Outline: as §2

[8] = test system: nightshade (eastern black nightshade, Solanum ptycanthum); test: Test B pre-/postemergence plant response; conditions: Preemergence
Outline: as §2

[9] = test system: sunflower (common oilseed sunflower, Helianthus annuus); test: Test B pre-/postemergence plant response; conditions: Preemergence
Outline: as §2

[10] = test system: galium (catchweed bedstraw, Galium aparine); test: Test B pre-/postemergence plant response; conditions: Preemergence
Outline: as §2

[11] = test system: chickweed (Stellaria media); test: Test B postemergence plant response; conditions: Postemergence
Outline: (§3)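 Plants at the 1- to 4-leaf stage (2 to 18 cm tall), grown in pots of peat moss/vermiculite medium with wetting agent and starter nutrients, received postemergence applications of test chemicals. After 13 to 15 days in a greenhouse, injury was rated visually against untreated controls on a 0 (no effect) to 100 (complete control) scale.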

[12] = test system: canarygrass (Phalaris minor); test: Test B postemergence plant response; conditions: Postemergence
Outline: as §3

[13] = test system: winter barley (Hordeum vulgare); test: Test B postemergence plant response; conditions: Postemergence
Outline: as §3

[14] = test system: windgrass (Apera spica-venti); test: Test B postemergence plant response; conditions: Postemergence
Outline: as §3

[15] = 250 g ai/ha, flooded paddy test, visual rating on 0 to 100 scale (0 no effect, 100 complete control) after 13 to 15 days
[16] = 31 g ai/ha, scale of 0 to 100 where 0 is no effect and 100 is complete control
[17] = 62 g ai/ha, scale 0 to 100, 0 is no effect, 100 is complete control
[18] = 125 g ai/ha, scale 0 to 100, 0 is no effect, 100 is complete control
[19] = 250 g ai/ha, Preemergence, 0 to 100 scale
[20] = Postemergence, 31 g ai/ha, scale 0 to 100 (0 no effect, 100 complete control)
[21] = Postemergence, 62 g ai/ha, scale 0 (no effect) to 100 (complete control), 13 to 15 days
[22] = Postemergence, 250 g ai/ha, scale 0 to 100
[23] = Preemergence, 31 g ai/ha, scale 0 to 100 (0 no effect, 100 complete control)
[24] = Preemergence, 62 g ai/ha, scale 0 to 100, 0 no effect, 100 complete control
[25] = Preemergence, 125 g ai/ha, 0 to 100 scale
[26] = 31 g ai/ha, scale 0 to 100 (0 no effect, 100 complete control)
[27] = 62 g ai/ha, scale 0 to 100, 0 no effect, 100 complete control
[28] = 62 g ai/ha, scale 0 (no effect) to 100 (complete control), 13 to 15 days
[29] = 125 g ai/ha, visual rating after 13 to 15 days, scale 0 (no effect) to 100 (complete control)

**Q.** With “5-[(1-ethyl-5-hydroxy-1H-pyrazol-4-yl)carbonyl]-2-phenyl-3-(phenylmethyl)-4(3H)-pyrimidinone [Compound 20]” as the substance, how does the “Plant response rating, Goosegrass” value [1] read?
**A.** 70

**Q.** And the “Plant response rating, Flood, Barnyardgrass” value [2, 15]?
**A.** 0

**Q.** What about the “Plant response rating, Barnyardgrass” value [2, 16] of the same substance?
**A.** 0

**Q.** What about the “Plant response rating, Barnyardgrass” value [2, 17] of the same substance?
**A.** 0

**Q.** And the “Plant response rating, Barnyardgrass” value [2, 18]?
**A.** 0

**Q.** And the “Plant response rating, Flood, Ducksalad” value [3, 15]?
**A.** 70

**Q.** What about the “Plant response rating, Ducksalad” value [3, 16] of the same substance?
**A.** 0

**Q.** And the “Plant response rating, Ducksalad” value [3, 17]?
**A.** 0

**Q.** What about the “Plant response rating, Ducksalad” value [3, 18] of the same substance?
**A.** 70

**Q.** What about the “Plant response rating, Flood, Rice” value [4, 15] of the same substance?
**A.** 0

**Q.** And the “Plant response rating, Rice” value [4, 16]?
**A.** 0

**Q.** What about the “Plant response rating, Rice” value [4, 17] of the same substance?
**A.** 0

**Q.** And the “Plant response rating, Rice” value [4, 18]?
**A.** 0

**Q.** What about the “Plant response rating, Flood, Sedge, Umbrella” value [5, 15] of the same substance?
**A.** 60

**Q.** What about the “Plant response rating, Sedge, Umbrella” value [5, 16] of the same substance?
**A.** 40

**Q.** What about the “Plant response rating, Sedge, Umbrella” value [5, 17] of the same substance?
**A.** 50

**Q.** And the “Plant response rating, Sedge, Umbrella” value [5, 18]?
**A.** 60

**Q.** And the “Plant response rating, Bermudagrass” value [6, 19]?
**A.** 90

**Q.** And the “Plant response rating, Bermudagrass” value [6, 20]?
**A.** 15

**Q.** And the “Plant response rating, Bermudagrass” value [6, 21]?
**A.** 25

**Q.** And the “Plant response rating, Bermudagrass” value ([6]; Postemergence, 125 g ai/ha, scale 0 to 100 (0 no effect, 100 complete control), 13 to 15 days)?
**A.** 70

**Q.** And the “Bermudagrass plant response rating” value [6, 22]?
**A.** 80

**Q.** And the “Plant response rating, Bermudagrass” value [6, 23]?
**A.** 10

**Q.** And the “Plant response rating, Bermudagrass” value [6, 24]?
**A.** 70

**Q.** And the “Bermudagrass plant response rating” value [6, 25]?
**A.** 80

**Q.** What about the “Plant response rating, Morningglory” value [7, 19] of the same substance?
**A.** 100

**Q.** What about the “Plant response rating, Morningglory” value [7, 20] of the same substance?
**A.** 15

**Q.** What about the “Plant response rating, Morningglory” value [7, 21] of the same substance?
**A.** 20

**Q.** And the “Plant response rating, Morningglory” value ([7]; Postemergence, 125 g ai/ha, visual rating after 13 to 15 days, scale 0 (no effect) to 100 (complete control))?
**A.** 55

**Q.** What about the “Morningglory plant response rating” value [7, 22] of the same substance?
**A.** 70

**Q.** What about the “Plant response rating, Morningglory” value [7, 23] of the same substance?
**A.** 100

**Q.** What about the “Plant response rating, Morningglory” value [7, 24] of the same substance?
**A.** 100

**Q.** And the “Morningglory plant response rating” value [7, 25]?
**A.** 100

**Q.** What about the “Plant response rating, Nightshade” value ([8]; 250 g ai/ha, 0 to 100 scale) of the same substance?
**A.** 100

**Q.** And the “Plant response rating, Nightshade” value [8, 26]?
**A.** 50

**Q.** What about the “Nightshade plant response rating” value ([8]; 125 g ai/ha, 0 to 100 scale) of the same substance?
**A.** 98

**Q.** And the “Plant response rating, Sunflower” value ([9]; 250 g ai/ha, 0 to 100 scale)?
**A.** 85

**Q.** And the “Plant response rating, Sunflower” value [9, 26]?
**A.** 50

**Q.** What about the “Plant response rating, Sunflower” value [9, 27] of the same substance?
**A.** 70

**Q.** What about the “Sunflower plant response rating” value ([9]; 125 g ai/ha, 0 to 100 scale) of the same substance?
**A.** 70

**Q.** And the “Plant response rating, Galium” value ([10]; 250 g ai/ha, 0 to 100 scale)?
**A.** 50

**Q.** What about the “Plant response rating, Galium” value [10, 26] of the same substance?
**A.** 0

**Q.** What about the “Plant response rating, Galium” value [10, 27] of the same substance?
**A.** 5

**Q.** And the “Galium plant response rating” value ([10]; 125 g ai/ha, 0 to 100 scale)?
**A.** 30

**Q.** And the “Plant response rating, Chickweed” value [11, 26]?
**A.** 90

**Q.** What about the “Plant response rating, Chickweed” value [11, 28] of the same substance?
**A.** 98

**Q.** And the “Plant response rating, Chickweed” value [11, 29]?
**A.** 98

**Q.** What about the “Chickweed plant response rating” value ([11]; 250 g ai/ha, scale 0 to 100) of the same substance?
**A.** 100

**Q.** What about the “Plant response rating, Canarygrass” value [12, 26] of the same substance?
**A.** 0

**Q.** And the “Plant response rating, Canarygrass” value [12, 28]?
**A.** 0

**Q.** And the “Plant response rating, Canarygrass” value [12, 29]?
**A.** 0

**Q.** What about the “Canarygrass plant response rating” value ([12]; 250 g ai/ha, scale 0 to 100) of the same substance?
**A.** 5

**Q.** And the “Plant response rating, Barley” value [13, 26]?
**A.** 0

**Q.** And the “Plant response rating, Barley” value [13, 28]?
**A.** 0

**Q.** And the “Plant response rating, Barley” value ([13]; 125 g ai/ha, scale 0 to 100 (0 no effect, 100 complete control), 13 to 15 days)?
**A.** 0

**Q.** What about the “Barley plant response rating” value ([13]; 250 g ai/ha, scale 0 to 100) of the same substance?
**A.** 0

**Q.** What about the “Plant response rating, Windgrass” value [14, 26] of the same substance?
**A.** 0

**Q.** And the “Plant response rating, Windgrass” value [14, 28]?
**A.** 0

**Q.** And the “Plant response rating, Windgrass” value [14, 29]?
**A.** 0

**Q.** What about the “Windgrass plant response rating” value ([14]; 250 g ai/ha, scale 0 to 100) of the same substance?
**A.** 5
